Where a SMILES comes first, the peptide text is derived from it. [ ]: non-standard residue; d: D form. ξ: configuration not given here. ξαMeBip(2'-Et,4'-OMe) = CCc1cc(OC)ccc1-c1ccc(CC(C)(N)C(=O)O)cc1; ξαMePhe(2,6-F2) = CC(N)(Cc1c(F)cccc1F)C(=O)O; ξhhPhe = NC(CCCc1ccccc1)C(=O)O; ξαMeP = CC1(C(=O)O)CCCN1; ξαMeS = CC(N)(CO)C(=O)O
Tested on: male C57BL/6J mice
Experiment: Acute single dose 120-min time-course experiment, in vivo glucose reduction
Design: unit not given here
Details: n = 8, Mean ± SEM
Method: Acute single dose 120-min time-course experiments were carried out in male C57BL/6J or db/db mice, age 8-12 weeks, bred in-house. The animals were housed in groups of 6 animals per cage, for a week, in order to habituate them to vivarium conditions (25+4° C., 60-65% relative humidity, 12:12 h light: dark cycle, with lights on at 7.30 am). All the animal experiments were carried out according to the internationally valid guidelines following approval by the ‘Zydus Research Center animal ethical committee’.
[…] On the day of experiment, food was withdrawn from all the cages, water was given ad-libitum and were kept for overnight fasting. Vehicle (normal saline)/test/standard compounds were administered intraperitoneally (i.p.) or orally, on a body weight basis. Soon after the 0 min. blood collection from each animal, the subsequent blood collections were done at 30, 60 and 120 or upto 240 min., via retro-orbital route, under light ether anesthesia (Chen, D., et al., Diabetes Obesity Metabolism, 2005, 7, 307. Kim, J. G. et al., Diabetes, 2003, 52, 751).
The blood samples were centrifuged and the separated serum was immediately subjected for the glucose estimation. The serum for insulin estimation was stored at −70° C. until used for the insulin estimation. The glucose estimation was carried out with DPEC-GOD/POD method (Ranbaxy Fine Chemicals Limited, Diagnostic division, India), using Spectramax-190, in 96-microwell plate reader (Molecular devices Corporation, Sunnyvale, Calif.). […] The AUC and BCAUC obtained from graphs were analyzed for one way ANOVA, followed by Dunnett's post test, using Graph Pad prism software. Furthermore, the insulin estimation was carried out using rat/mouse insulin ELISA kit (Linco research, Missouri USA).

SMILES	blood glucose level (in vivo glucose reduction) (2 μM/kg, oral, 0 min)	blood glucose level (in vivo glucose reduction) (2 μM/kg, oral, 30 min)	blood glucose level (in vivo glucose reduction) (2 μM/kg, oral, 60 min)	blood glucose level (in vivo glucose reduction) (2 μM/kg, oral, 120 min)	also measured
CCc1cc(OC)ccc1-c1ccc(CC(NC(=O)C(C)(CC(=O)O)NC(=O)C(C)(CO)NC(=O)[C@@H](NC(=O)C(C)(Cc2c(F)cccc2F)NC(=O)[C@@H](NC(=O)CNC(=O)[C@H](CCC(=O)O)NC(=O)C(C)(C)NC(=O)[C@H](Cc2c[nH]cn2)NC(=O)[C@@H](N)C(C)C)[C@@H](C)O)[C@@H](C)O)C(=O)NC(C)(CCCc2ccccc2)C(N)=O)cc1 (single isomer, unassigned) [Seq. ID. No. 129, VH-Aib-EGT-(αMe-2,6-diFPhe)-T-(αMe-Ser)-(αMe-Asp)-Bip(OMe)-(αMe-APPA)]	183 ± 2.4	116 ± 3.1	112 ± 4.8	110 ± 2.5	–
CCc1cc(OC)ccc1-c1ccc(CC(C)(NC(=O)[C@H](CC(=O)O)NC(=O)[C@H](CO)NC(=O)[C@@H](NC(=O)C(C)(Cc2ccccc2F)NC(=O)[C@@H](NC(=O)CNC(=O)[C@H](CCC(=O)O)NC(=O)[C@H](CO)NC(=O)[C@H](Cc2c[nH]cn2)NC(=O)[C@@H](N)C(C)C)[C@@H](C)O)[C@@H](C)O)C(=O)NC(C)(CCCc2ccccc2)C(N)=O)cc1 (single isomer, unassigned) [Seq. ID. No. 145, VHSEGT-(αMe-2FPhe)-TSD-(αMe-Bip(OMe))-(αMe-APPA)]	184 ± 2.2	118 ± 3.3	112 ± 4.4	110 ± 2.9	–
CCc1cc(OC)ccc1-c1ccc(CC(C)(NC(=O)[C@H](CC(=O)O)NC(=O)C(C)(CO)NC(=O)[C@@H](NC(=O)C(C)(Cc2ccccc2F)NC(=O)[C@@H](NC(=O)CNC(=O)[C@H](CCC(N)=O)NC(=O)[C@H](C)NC(=O)[C@H](Cc2c[nH]cn2)NC(=O)[C@@H](N)C(C)C)[C@@H](C)O)[C@@H](C)O)C(=O)NC(C)(CCCc2ccccc2)C(N)=O)cc1 (single isomer, unassigned) [Seq. ID. No. 166, VHAQGT-(αMe-2FPhe)-T-(αMe-Ser)-D-(αMe-Bip(OMe))-(αMe-APPA)]	–	–	–	–	blood glucose level (in vivo glucose reduction) (0.5 μM/kg, oral, 0 min): 184 ± 2.5; blood glucose level (in vivo glucose reduction) (0.5 μM/kg, oral, 30 min): 115 ± 3.6; blood glucose level (in vivo glucose reduction) (0.5 μM/kg, oral, 60 min): 113 ± 4.2; blood glucose level (in vivo glucose reduction) (0.5 μM/kg, oral, 120 min): 110 ± 2.4
CCc1cc(OC)ccc1-c1ccc(CC(C)(NC(=O)[C@H](CC(=O)O)NC(=O)C(C)(CO)NC(=O)[C@@H](NC(=O)C(C)(Cc2c(F)cccc2F)NC(=O)[C@@H](NC(=O)CNC(=O)[C@H](CCC(=O)O)NC(=O)[C@H](CO)NC(=O)[C@H](Cc2c[nH]cn2)NC(=O)[C@@H](N)C(C)C)[C@@H](C)O)[C@@H](C)O)C(=O)NC(C)(CCCc2ccccc2)C(N)=O)cc1 (single isomer, unassigned) [Seq. ID. No. 177, VHSEGT-(αMe-2,6-diFPhe)-T-(αMe-Ser)-D-(αMe-Bip(OMe))-(αMe-APPA)]	183 ± 2.4	116 ± 3.1	112 ± 4.8	110 ± 2.5	–
CCc1cc(OC)ccc1-c1ccc(CC(C)(NC(=O)[C@H](CC(=O)O)NC(=O)C(C)(CO)NC(=O)[C@@H](NC(=O)C(C)(Cc2c(F)cccc2F)NC(=O)[C@@H](NC(=O)CNC(=O)[C@H](CCC(=O)O)NC(=O)C(C)(C)NC(=O)[C@H](Cc2c[nH]cn2)NC(=O)[C@@H](N)C(C)C)[C@@H](C)O)[C@@H](C)O)C(=O)NC(C)(CCCc2ccccc2)C(N)=O)cc1 (single isomer, unassigned) [Seq. ID. No. 179, VH-Aib-EGT-(αMe-2,6-diFPhe)-T-(αMe-Ser)-D-(αMe-Bip(OMe))-(αMe-APPA)]	–	–	–	–	blood glucose level (in vivo glucose reduction) (20 nM/kg, i.p, 0 min): 182 ± 2.1; blood glucose level (in vivo glucose reduction) (20 nM/kg, i.p, 30 min): 121 ± 2.9; blood glucose level (in vivo glucose reduction) (20 nM/kg, i.p, 60 min): 130 ± 3.1; blood glucose level (in vivo glucose reduction) (20 nM/kg, i.p, 120 min): 138 ± 2.4
CCc1cc(OC)ccc1-c1ccc(CC(C)(NC(=O)C(C)(CC(=O)O)NC(=O)[C@H](CO)NC(=O)[C@@H](NC(=O)[C@H](Cc2ccccc2)NC(=O)[C@@H](NC(=O)CNC(=O)[C@H](CCC(=O)O)NC(=O)C(C)(C)NC(=O)[C@H](Cc2c[nH]cn2)NC(=O)[C@@H](N)C(C)C)[C@@H](C)O)[C@@H](C)O)C(=O)NC(C)(CCCc2ccccc2)C(N)=O)cc1 (single isomer, unassigned) [Seq. ID. No. 187, VH-Aib-EGTFTS-(αMe-Asp)-(αMe-Bip(OMe))-(αMe-APPA)]	183 ± 2.4	119 ± 3.1	112 ± 4.8	110 ± 2.5	–
CCc1cc(OC)ccc1-c1ccc(CC(C)(NC(=O)C(C)(CC(=O)O)NC(=O)[C@H](CO)NC(=O)[C@@H](NC(=O)C(C)(Cc2c(F)cccc2F)NC(=O)[C@@H](NC(=O)CNC(=O)[C@H](CCC(N)=O)NC(=O)C(C)(C)NC(=O)[C@H](Cc2c[nH]cn2)NC(=O)[C@@H](N)C(C)C)[C@@H](C)O)[C@@H](C)O)C(=O)NC(C)(CCCc2ccccc2)C(N)=O)cc1 (single isomer, unassigned) [Seq. ID. No. 199, VH-Aib-QGT-(αMe-2,6-diFPhe)-TS-(αMe-Asp)-(αMe-Bip(OMe))-(αMe-APPA)]	–	–	–	–	blood glucose level (in vivo glucose reduction) (30 nM/kg, i.p, 0 min): 180 ± 1.2; blood glucose level (in vivo glucose reduction) (30 nM/kg, i.p, 30 min): 116 ± 3.2; blood glucose level (in vivo glucose reduction) (30 nM/kg, i.p, 60 min): 116 ± 3.1; blood glucose level (in vivo glucose reduction) (30 nM/kg, i.p, 120 min): 118 ± 1.8
CCc1cc(OC)ccc1-c1ccc(CC(C)(NC(=O)[C@H](CC(=O)O)NC(=O)C(C)(CO)NC(=O)[C@@H](NC(=O)C(C)(Cc2c(F)cccc2F)NC(=O)[C@@H](NC(=O)CNC(=O)[C@H](CCC(=O)O)NC(=O)C2(C)CCCN2C(=O)[C@H](Cc2c[nH]cn2)NC(=O)[C@@H](N)C(C)C)[C@@H](C)O)[C@@H](C)O)C(=O)NC(CCCc2ccccc2)C(N)=O)cc1 (stereo partly drawn) [Seq. ID. No. 56, VH-(αMe-Pro)-EGT-(αMe-2,6-diFPhe)-T-(αMe-Ser)-D-(αMe-Bip(OMe))-(APPA)] (H-VH[ξαMeP]EGT[ξαMePhe(2,6-F2)]T[ξαMeS]D[ξαMeBip(2'-Et,4'-OMe)][ξhhPhe]-NH2)	–	–	–	–	blood glucose level (in vivo glucose reduction) (5 nM/kg, i.p, 0 min): 179 ± 5.0; blood glucose level (in vivo glucose reduction) (5 nM/kg, i.p, 30 min): 120 ± 3.6; blood glucose level (in vivo glucose reduction) (5 nM/kg, i.p, 60 min): 129 ± 2.0; blood glucose level (in vivo glucose reduction) (5 nM/kg, i.p, 120 min): 148 ± 1.7

Reference: patent US20120264685A1 (priority 2009, published 2012)
